Source: BindingDB's records for doi:10.7270/Q2Q52N1X (Vanderbilt Screening Center for GPCRs, Ion Channels and …, 2009)

Each compound was assayed against T1, Solute carrier family 12 member 5 (Homo sapiens, UniProt Q9H2X9) (assay: concentration-response of KCC2 transport modulators – cell-based, HEK293 KCC2, FluoZin-2 fluorescence, dose response (AID 1736)). Settings: not given.
T1 sequence (Q9H2X9 whole entry): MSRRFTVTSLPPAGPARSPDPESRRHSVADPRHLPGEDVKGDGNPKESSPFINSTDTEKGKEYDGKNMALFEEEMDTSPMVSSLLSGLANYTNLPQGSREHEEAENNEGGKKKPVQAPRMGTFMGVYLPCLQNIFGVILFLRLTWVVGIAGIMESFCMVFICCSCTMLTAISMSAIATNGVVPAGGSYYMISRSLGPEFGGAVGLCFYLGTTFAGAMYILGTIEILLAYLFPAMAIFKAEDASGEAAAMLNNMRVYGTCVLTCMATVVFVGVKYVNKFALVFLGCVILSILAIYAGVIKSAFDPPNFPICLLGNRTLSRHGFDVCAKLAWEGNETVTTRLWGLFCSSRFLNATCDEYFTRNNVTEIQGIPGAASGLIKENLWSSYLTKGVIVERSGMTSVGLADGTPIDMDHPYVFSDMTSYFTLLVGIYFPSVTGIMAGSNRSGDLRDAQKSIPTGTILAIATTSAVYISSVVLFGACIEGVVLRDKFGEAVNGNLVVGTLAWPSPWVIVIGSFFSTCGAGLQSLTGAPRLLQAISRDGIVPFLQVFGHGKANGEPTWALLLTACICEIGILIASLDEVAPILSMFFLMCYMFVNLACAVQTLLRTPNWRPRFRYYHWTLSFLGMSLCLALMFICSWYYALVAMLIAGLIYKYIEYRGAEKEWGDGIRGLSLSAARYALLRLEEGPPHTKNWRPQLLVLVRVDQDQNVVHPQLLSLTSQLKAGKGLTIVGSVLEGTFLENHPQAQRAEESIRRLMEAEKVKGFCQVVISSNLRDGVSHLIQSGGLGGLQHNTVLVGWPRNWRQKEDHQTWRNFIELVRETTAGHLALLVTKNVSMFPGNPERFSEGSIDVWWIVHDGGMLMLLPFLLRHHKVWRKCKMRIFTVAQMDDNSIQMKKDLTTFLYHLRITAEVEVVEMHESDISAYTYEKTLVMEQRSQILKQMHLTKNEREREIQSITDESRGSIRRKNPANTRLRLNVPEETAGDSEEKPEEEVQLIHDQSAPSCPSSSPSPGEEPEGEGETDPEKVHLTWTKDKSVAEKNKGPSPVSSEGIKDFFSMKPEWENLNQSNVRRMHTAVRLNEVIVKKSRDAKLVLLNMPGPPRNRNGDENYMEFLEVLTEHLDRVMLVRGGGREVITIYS

Structure (SMILES)	EC50
O=C(Cn1cnc2c(nnn2Cc2ccc(F)cc2)c1=O)NCc1ccc2c(c1)OCO2 [2-[3-(4-fluorobenzyl)-7-keto-triazolo[4,5-d]pyrimidin-6-yl]-N-piperonyl-acetamide]	2.61 µM
CCc1ccc(Nc2nnc(SCc3cc(=O)n4ccsc4n3)s2)cc1 [7-[[5-(4-ethylanilino)-1,3,4-thiadiazol-2-yl]sulfanylmethyl]-[1,3]thiazolo[3,2-a]pyrimidin-5-one]	0.281 µM
O=C(NN1C(=O)/C(=C/c2nc3ccccc3[nH]2)SC1=S)c1ccccc1Cl [N-{5-[1-(1H-Benzoimidazol-2-yl)-meth-(Z)-ylidene]-4-oxo-2-thioxo-thiazolidin-3-yl}-2-chloro-benzamide]	0.153 µM
c1ccc(-c2nnc(Sc3ncnc4c3cnn4-c3ccccc3)[nH]2)cc1 [SMR000019566]	12.3 µM
Cc1cccc(Nc2nnc(SCC(=O)c3ccc(Br)s3)s2)c1C [1-(5-bromanylthiophen-2-yl)-2-[[5-[(2,3-dimethylphenyl)amino]-1,3,4-thiadiazol-2-yl]sulfanyl]ethanone]	1.49 µM
O=c1c(-c2cnn(-c3ccccc3)c2)coc2cc(O)ccc12 [7-hydroxy-3-(1-phenyl-1H-pyrazol-4-yl)-4H-chromen-4-one]	20.1 µM
O=C(c1cc2c(s1)-c1ccccc1OC2)N1CCC2(CC1)OCCO2 [1,4-dioxa-8-azaspiro[4.5]decan-8-yl(4H-thieno[3,2-c][1]benzopyran-2-yl)methanone]	30.2 µM
c1ccc(-c2csc(N=NCc3cccnc3)n2)cc1 [(4-phenylthiazol-2-yl)-(3-pyridylmethyleneamino)amine]	35.8 µM
O=c1[nH]c2c(s1)C(c1ccccc1)c1c(c(O)n(-c3ccccc3)c1O)S2 (stereo not drawn)	0.102 µM
Cc1ccc(Cn2c(SCC(=O)Nc3cc(C)on3)nc3ccccc3c2=O)cc1 [2-[[4-keto-3-(4-methylbenzyl)quinazolin-2-yl]thio]-N-(5-methylisoxazol-3-yl)acetamide]	82 µM
O=C(CSc1nnnn1-c1ccc(Cl)cc1)N1CCc2ccccc2C1 [2-[1-(4-chlorophenyl)tetrazol-5-yl]sulfanyl-1-(3,4-dihydro-1H-isoquinolin-2-yl)ethanone]	3.26 µM
Cc1csc(NC(=O)CSc2ccc(-c3ccccc3)nn2)n1 [N-(4-methyl-1,3-thiazol-2-yl)-2-(6-phenylpyridazin-3-yl)sulfanyl-ethanamide]	0.493 µM
O=C(NCCOc1ccccc1F)c1ccccc1SCc1ccc(F)cc1 [2-[(4-fluorobenzyl)thio]-N-[2-(2-fluorophenoxy)ethyl]benzamide]	0.313 µM
O=C(CNC(=O)/C(=C\c1ccc(Br)cc1)NC(=O)c1ccccc1)OCc1ccccc1 [(phenylmethyl) 2-[[(E)-2-benzamido-3-(4-bromophenyl)prop-2-enoyl]amino]ethanoate]	1.2 µM
CN1/C(=C\C(=S)NC(=O)c2cccc(Br)c2)C(C)(C)c2ccccc21 [SMR000254682]	3.68 µM
O=C(NCc1nc(-c2ccccc2)cs1)c1ccccc1 [MLS000661971]	7.64 µM
CCN(CC)S(=O)(=O)c1ccc(NC(=O)CSc2ncnc3ccccc23)cc1 [MLS000393282]	5.08 µM
O=[N+]([O-])c1ccccc1C=C[CH+][N-]n1c(-c2ccc(Cl)cc2)n[nH]c1=S [MLS000555506]	14.1 µM
O=C(Cc1csc(-c2ccccc2)n1)NCc1ccc(F)cc1 [MLS000336311]	19.4 µM

Same assay, conditions: inactive by the depositor's call

Structure (SMILES)	EC50
COc1ccc(N(CC(=O)Nc2ccc(C)c(C)c2)S(=O)(=O)c2c(C)n[nH]c2C)cc1 [SMR000027403]	35.1 µM
COc1ccc(/C=C2\CCc3ccccc3C2=O)cc1CN1CCOCC1 [(2E)-2-[4-methoxy-3-(morpholinomethyl)benzylidene]tetralin-1-one]	219 µM
S=C(NCCc1ccccc1)NCc1cccs1 [1-(2-phenylethyl)-3-(thiophen-2-ylmethyl)thiourea]	5.82 µM
O=C(Cn1cnc2c(nnn2Cc2ccc(F)cc2)c1=O)NCc1ccco1 [2-[3-(4-fluorobenzyl)-7-keto-triazolo[4,5-d]pyrimidin-6-yl]-N-(2-furfuryl)acetamide]	49 µM
